According to patent US5698222A, “Calcium supplement” (Abbott Laboratories, priority 1995, dated 1997):
Counter-ions that a name gives are not always drawn. Like-named read-outs stand apart in the source and are kept apart here. Blank lines part the entries; values can stand above or below the compound they belong to.

Tests used:
[1] = titratable acidity of calcium sources; type: physicochemical; settings: pH 3.5 raised to pH 8.3, 40 g sample
Source text: Acidity is desired in the liquid nutritional product of the present invention for several reasons such as: to maintain the calcium salt solubility, to complement flavor, to control microbial growth, and to enhance the role of preservatives, specifically potassium benzoate or sodium benzoate. On the other hand, too much acidity can result in increased tartness and sourness that make the product undesirable from a sensory point of view. […] Titratable acidity is an indication of the total acidity of a beverage.

[2] = cited from earlier work
[3] = low birth weight infants; cited from earlier work
[4] = piglets; cited from earlier work
[5] = rats, three weeks, as compared to a control; cited from earlier work
[6] = Procedure: In this evaluation solubility was determined by a visual examination.
[7] = without aluminum-containing drugs; cited from earlier work
[8] = large amounts; cited from earlier work
[9] = values from Whiting article; cited from earlier work

Compound: [Ca+2].[OH-].[OH-] [Calcium Hydroxide, calcium hydroxide]
Titratable acidity [1]: 60.6 mL of 0.1N NaOH

Compound: O=P(O)(O)OCC(O)CO (centres unmarked) [glycerophosphate]
pKf [2]: 6.1

Titratable acidity [1]: 47.1 mL of 0.1N NaOH
Compound: CC(O)C(=O)O (centres unmarked) [Calcium Lactate, calcium lactate]

Compound: [Ca+2].[Cl-].[Cl-] [Calcium Chloride, calcium chloride]
Titratable acidity [1]: 0.7 mL of 0.1N NaOH

Titratable acidity [1]: 43.5 mL of 0.1N NaOH
Compound: calcium glycerophosphate [CaGP]
effectiveness as source of calcium in TPN solutions [3]: as effective as calcium gluconate
effectiveness as source of calcium in TPN solutions [4]: as effective as calcium gluconate

Titratable acidity [1]: 48.6 mL of 0.1N NaOH
Compound: O=P([O-])([O-])[O-].O=P([O-])([O-])[O-].[Ca+2].[Ca+2].[Ca+2] [Tricalcium Phosphate, tricalcium phosphate]
relative calcium bioavailability [5]: 110%

solubility at time of manufacture ([6]; pH 3.5): soluble
solubility at 1 month ([6]; pH 5): partially Soluble
solubility at time of manufacture ([6]; pH 5): soluble
Compound: O=C(O)[C@H](O)[C@@H](O)[C@H](O)[C@H](O)CO [D-Gluconic-Acid, D-gluconic acid (hemicalcium salt)]

Compound: O=C(O)CC(O)(CC(=O)O)C(=O)O [Calcium Citrate, calcium citrate]
Titratable acidity [1]: 57.5 mL of 0.1N NaOH
relative calcium bioavailability [5]: 110%
aluminum toxicity risk [7]: does not pose a risk of aluminum toxicity

Compound: O=C(O)O [Calcium Carbonate, calcium carbonate]
Titratable acidity [1]: 61.4 mL of 0.1N NaOH
adverse effects [8]: can lead to constipation and abdominal distention

Compound: calcium citrate malate
Titratable acidity [1]: 53.2 mL of 0.1N NaOH

Compound: O=C(O)O [CaCO3 (from fossil shell)]
Aluminum Content [9]: 4,400 parts per million (ppm)

Compound: O=C(O)O [CaCO3 (from Dolomite)]
Aluminum Content [9]: 171-315 parts per million (ppm)
